Usually Ki stands for a measure of affinity in units of concentration, obtained from inhibition or displacement.

Ki data for 34 molecules are collected here from patent US10647727B2, “Substituted pyrazolo/imidazolo bicyclic compounds as PDE2 inhibitors” (Merck Sharp & Dohme Corp., priority 2015, dated 2020).

One experiment deals with human PDE2A1 (Homo sapiens (Human), UniProt O00408). Briefly: biochemical. The format is biochemical.
A further experiment has as its target Rhesus PDE2A3 (Macaca mulatta, UniProt B3VTJ2). Briefly: PDE2 fluorescence polarization (IMAP FP) inhibition assay, rhesus enzyme. The class given is biochemical, rhesus macaque. For orientation: Fluorescence polarisation rises when a labelled molecule tumbles more slowly, as on binding a larger partner.
Where [1] appears, read: Lab B, read-out: Human PDE2 Ki (nM) Lab B.
Where [2] appears, read: read-out: Human PDE2 Ki (nM) Lab B.
[3] abbreviates: Lab A, read-out: Human PDE2 Ki (nM) Lab A.
Where [4] appears, read: Lab A, read-out: Rhesus PDE2 Ki (nM) Lab A.
The mark [5] stands for this setting: Lab B, read-out: Rhesus PDE2 Ki (nM) Lab B.

Read-outs that look alike come from different tables or passages of the source. Bounds are passed on as bounds.

Rhesus PDE2A3, sequence (B3VTJ2 1-941): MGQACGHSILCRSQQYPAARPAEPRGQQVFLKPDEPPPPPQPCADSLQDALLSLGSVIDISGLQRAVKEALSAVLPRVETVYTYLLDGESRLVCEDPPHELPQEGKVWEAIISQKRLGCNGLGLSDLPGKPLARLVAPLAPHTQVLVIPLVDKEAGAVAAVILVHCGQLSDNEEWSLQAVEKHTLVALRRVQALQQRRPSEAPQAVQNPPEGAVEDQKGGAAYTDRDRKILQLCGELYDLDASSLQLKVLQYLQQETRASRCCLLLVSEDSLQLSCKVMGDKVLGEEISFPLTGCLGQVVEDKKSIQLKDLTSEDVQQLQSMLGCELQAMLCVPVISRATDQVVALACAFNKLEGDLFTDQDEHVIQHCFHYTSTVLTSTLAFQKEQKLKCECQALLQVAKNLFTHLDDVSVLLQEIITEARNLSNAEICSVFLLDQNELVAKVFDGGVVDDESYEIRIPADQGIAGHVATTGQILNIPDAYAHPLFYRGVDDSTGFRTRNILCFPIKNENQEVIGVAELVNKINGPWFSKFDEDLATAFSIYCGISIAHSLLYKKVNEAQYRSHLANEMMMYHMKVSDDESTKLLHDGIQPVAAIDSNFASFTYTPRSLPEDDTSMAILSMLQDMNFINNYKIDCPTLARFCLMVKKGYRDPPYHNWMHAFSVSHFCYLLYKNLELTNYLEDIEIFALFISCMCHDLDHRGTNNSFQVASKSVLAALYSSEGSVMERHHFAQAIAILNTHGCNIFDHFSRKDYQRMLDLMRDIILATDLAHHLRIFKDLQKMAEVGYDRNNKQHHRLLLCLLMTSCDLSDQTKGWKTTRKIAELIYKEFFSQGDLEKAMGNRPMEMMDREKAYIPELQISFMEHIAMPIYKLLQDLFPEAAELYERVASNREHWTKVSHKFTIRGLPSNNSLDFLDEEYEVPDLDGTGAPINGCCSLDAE
human PDE2A1, sequence (O00408 other isoform, or with tags, fused parts or gaps): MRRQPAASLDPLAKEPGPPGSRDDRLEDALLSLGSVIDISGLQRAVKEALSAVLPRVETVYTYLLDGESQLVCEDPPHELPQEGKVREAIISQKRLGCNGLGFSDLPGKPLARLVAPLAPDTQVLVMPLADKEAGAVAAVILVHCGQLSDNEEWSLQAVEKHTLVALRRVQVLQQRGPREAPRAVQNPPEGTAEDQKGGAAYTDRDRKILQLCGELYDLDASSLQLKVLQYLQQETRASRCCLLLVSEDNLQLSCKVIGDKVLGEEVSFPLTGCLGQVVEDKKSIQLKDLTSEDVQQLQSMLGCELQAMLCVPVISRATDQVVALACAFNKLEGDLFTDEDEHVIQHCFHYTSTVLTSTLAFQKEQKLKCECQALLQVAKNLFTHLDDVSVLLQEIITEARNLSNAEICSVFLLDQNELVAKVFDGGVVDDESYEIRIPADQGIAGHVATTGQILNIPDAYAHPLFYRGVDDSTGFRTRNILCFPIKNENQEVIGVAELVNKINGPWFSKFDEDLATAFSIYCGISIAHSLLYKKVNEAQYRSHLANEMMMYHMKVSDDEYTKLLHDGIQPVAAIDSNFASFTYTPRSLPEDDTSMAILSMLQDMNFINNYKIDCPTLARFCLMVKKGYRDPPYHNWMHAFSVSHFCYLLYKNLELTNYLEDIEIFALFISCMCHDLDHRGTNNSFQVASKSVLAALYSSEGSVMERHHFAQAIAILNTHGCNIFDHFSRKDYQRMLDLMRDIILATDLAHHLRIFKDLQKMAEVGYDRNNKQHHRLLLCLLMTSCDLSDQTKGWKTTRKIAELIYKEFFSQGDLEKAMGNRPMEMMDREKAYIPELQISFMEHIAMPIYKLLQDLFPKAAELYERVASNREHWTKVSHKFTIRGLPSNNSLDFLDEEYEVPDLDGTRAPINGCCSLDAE

As to `Cc1cc(N[C@@H](c2ccc(C(F)(F)F)c(F)c2)C(C)(C)C)n2ncc(CO)c2n1` [Example 46], at human PDE2A1 (setting [1]), the Ki is roughly 2640 nM. Turning to `Cc1cc(NC2(c3ccc(C(F)(F)F)c(F)c3)CC2)n2nccc2n1` [Example 47, N-{1-[3-Fluoro-4-(trifluoromethyl)phenyl]cyclopropyl}-5-methylpyrazolo[1,5-a]pyrimidin-7-amine], the Ki at human PDE2A1 (setting [1]) was determined as 199 nM. Same read-out and setting: next, `Cc1nc(NC2(c3ccc(C(F)(F)F)c(F)c3)CC2)c2nc[nH]c2n1` [Example 36, N-{1-[3-Fluoro-4-(trifluoromethyl)phenyl]cyclopropyl}-2-methyl-9H-purin-6-amine]: 206 nM. Take `CC(C)(O)C(Nc1nc(C(F)(F)F)cc2nccn12)c1ccc(C(F)(F)F)c(F)c1` (single isomer, unassigned) [Example 34, (S or R)-1-[3-Fluoro-4-(trifluoromethyl)phenyl]-2-methyl-1-{[7-(trifluoromethyl)imidazo[1,2-c]pyrimidin-5-yl]amino}propan-2-ol]: on human PDE2A1 (setting [2]), the Ki was greater than 2960 nM. For the molecule `CC(C)(O)C(Nc1nc(C(F)(F)F)cc2nccn12)c1ccc(C(F)(F)F)c(F)c1` (single isomer, unassigned) [Example 33, (R or S)-1-[3-Fluoro-4-(trifluoromethyl)phenyl]-2-methyl-1-{[7-(trifluoromethyl)imidazo[1,2-c]pyrimidin-5-yl]amino}propan-2-ol], the Ki on human PDE2A1 (setting [2]) stood at 1330 nM. Regarding `Cc1cc(N[C@@H](c2ccc(C(F)(F)F)c(F)c2)C(C)(C)C)n2ncc(C#N)c2n1` [Example 40, 7-({(1R)-1-[3-Fluoro-4-(trifluoromethyl)phenyl]-2,2-dimethylpropyl}amino)-5-methylpyrazolo[1,5-a]pyrimidine-3-carbonitrile], the Ki at human PDE2A1 (setting [1]) was found to be 462 nM. With `Cc1cc(NC2(c3ccc(C(F)(F)F)c(F)c3)CC2)n2ncc(C#N)c2n1` [Example 39, 7-((1-(3-Fluoro-4-(trifluoromethyl)phenyl)cyclopropyl)amino)-5-methylpyrazolo[1,5-a]pyrimidine-3-carbonitrile], the Ki at human PDE2A1 (setting [1]) is 503 nM. Consider `Cc1cc(NC2(c3ccc(C(F)(F)F)c(F)c3)CC2)n2nc(CO)cc2n1` [Example 43, [7-({1-[3-Fluoro-4-(trifluoromethyl)phenyl]cyclopropyl}amino)-5-methylpyrazolo[1,5-a]pyrimidin-2-yl]methanol], for which the Ki on human PDE2A1 (setting [1]) was 169 nM. `Cc1nc(N[C@H](C)c2ccc(C(F)(F)F)cc2)c2cnn(C)c2n1` [Example 21, 1,6-Dimethyl-N-{(1R)-1-[4-(trifluoromethyl)-phenyl]ethyl}-1H-pyrazolo[3,4-d]-pyrimidin-4-amine]: the Ki on human PDE2A1 (setting [3]) worked out at 140 nM; at Rhesus PDE2A3 (setting [4]), 194 nM.

As to `C[C@H](c1ccc(C(F)(F)F)cc1)N(C)c1nc(Cl)nc2c1cnn2C` [Example 14, 6-Chloro-N,1-dimethyl-N-{(1R)-1-[4-(trifluoromethyl)phenyl]ethyl}-1H-pyrazolo[3,4-d]pyrimidin-4-amine], the Ki was determined as 65 nM on human PDE2A1 (setting [3]) and 137 nM at Rhesus PDE2A3 (setting [4]). As to `Cc1nc(NC2(c3ccc(OC(F)(F)F)c(F)c3)CC2)c2cnn(C)c2n1` [Example 22], the results for the Ki at human PDE2A1 (setting [1]) and at Rhesus PDE2A3 (setting [5]) were 35 nM and 55 nM, respectively.

Turning to `Cc1cc(NC2(c3ccc(C(F)(F)F)c(F)c3)CC2)n2ncc(CO)c2n1` [Example 45, [7-({1-[3-Fluoro-4-(trifluoromethyl)phenyl]cyclopropyl}amino)-5-methylpyrazolo[1,5-a]pyrimidin-3-yl]methanol], on human PDE2A1 (setting [1]), the Ki came to 682 nM. Consider `Cc1cc(N[C@@H](c2ccc(C(F)(F)F)c(F)c2)C(C)(C)C)n2nccc2n1` [Example 48, N-{(1R)-1-[3-Fluoro-4-(trifluoromethyl)phenyl]-2,2-dimethylpropyl}-5-methylpyrazolo[1,5-a]pyrimidin-7-amine], for which the Ki at human PDE2A1 (setting [1]) is 174 nM. The same measure, in the same setting: under `Cc1cc(NC2(c3ccc(C(F)(F)F)c(F)c3)CC2)n2ncc(N)c2n1` [Example 41, N^7-{1-[3-Fluoro-4-(trifluoromethyl)phenyl]cyclopropyl}-5-methylpyrazolo[1,5-a]pyrimidine-3,7-diamine] stands 337 nM. Take `CN(c1nc(Cl)nc2c1cnn2C)C1(c2ccc(C(F)(F)F)cc2)CC1` [Example 17, 6-Chloro-N,1-dimethyl-N-{1-[4-(trifluoromethyl)phenyl]cyclopropyl}-1H-pyrazolo[3,4-d]pyrimidin-4-amine]: the Ki was determined as 3.8 nM at human PDE2A1 (setting [1]), 1.5 nM at Rhesus PDE2A3 (setting [4]) and 6 nM at Rhesus PDE2A3 (setting [5]).

Take `Cc1nc(OC2(c3ccc(C(F)(F)F)cc3)CC2)c2cnn(C)c2n1` [Example 30, 1,6-Dimethyl-4-({1-[4-(trifluoromethyl)phenyl]cyclopropyl}oxy)-1H-pyrazolo[3,4-d]pyrimidine]: the Ki at human PDE2A1 (setting [1]) is 32 nM. Turning to `Cc1nc(NC2(c3ccc(C(F)(F)F)c(F)c3)CC2)c2ncn(C)c2n1` [Example 37, N-(1-(3-Fluoro-4-(trifluoromethyl)phenyl)cyclopropyl)-2,9-dimethyl-9H-purin-6-amine], the Ki on human PDE2A1 (setting [1]) worked out at 115 nM. Regarding `CCN(Cc1ccc(C(F)(F)F)cc1)c1nc(Cl)nc2c1cnn2C` [Example 16, 6-Chloro-N-ethyl-1-methyl-N-[4-(trifluoromethyl)-benzyl]-1H-pyrazolo-[3,4-d]pyrimidin-4-amine], the Ki was 429 nM on human PDE2A1 (setting [3]) and 866 nM on Rhesus PDE2A3 (setting [4]). Turning to `Cc1cc(NC2(c3ccc(C(F)(F)F)c(F)c3)CC2)n2ccnc2n1` [Example 31, N-(1-(3-Fluoro-4-(trifluoromethyl)phenyl)cyclopropyl)-7-methylimidazo[1,2-a]pyrimidin-5-amine], on human PDE2A1 (setting [2]), the Ki was found to be 55 nM. For the molecule `CN(Cc1ccc(C(F)(F)F)cc1)c1nc(Cl)nc2c1cnn2C` [Example 15, 6-Chloro-N,1-dimethyl-N-[4-(trifluoromethyl)-benzyl]-1H-pyrazolo-[3,4-d]pyrimidin-4-amine], on Rhesus PDE2A3 (setting [4]), the Ki worked out at 997 nM.

For the molecule `Cc1nc(NC2(c3ccc(C(F)(F)F)cc3)CCC2)c2cnn(C)c2n1` [Example 25, 1,6-Dimethyl-N-{1-[4-(trifluoro-methyl)phenyl]-cyclobutyl}-1H-pyrazolo[3,4-d]-pyrimidin-4-amine], the Ki came to 430 nM at human PDE2A1 (setting [1]) and 358 nM at Rhesus PDE2A3 (setting [5]). With `Cc1cc(N[C@@H](c2ccc(C(F)(F)F)c(F)c2)C(C)(C)C)n2ncc(N)c2n1` [Example 42, N^7-{(1R)-1-[3-Fluoro-4-(trifluoromethyl)phenyl]-2,2-dimethylpropyl}-5-methylpyrazolo[1,5-a]pyrimidine-3,7-diamine], the Ki on human PDE2A1 (setting [1]) was 580 nM.

As to `CC(Nc1nc(Cl)nc2c1cnn2C)c1ccc(-n2cccn2)cc1` (stereo not drawn) [Example 7, 6-Chloro-1-methyl-N-{1-[4-(1H-pyrazol-1-yl)phenyl]-ethyl}-1H-pyrazolo[3,4-d]-pyrimidin-4-amine], the Ki on Rhesus PDE2A3 (setting [4]) was 2650 nM.

On to `CCC(Nc1nc(Cl)nc2c1cnn2C)c1ccc(C(C)C)cc1` (stereo not drawn) [Example 6, 6-Chloro-1-methyl-N-{1-[4-(1-methylethyl)-phenyl]propyl}-1H-pyrazolo-[3,4-d]pyrimidin-4-amine], for which, on Rhesus PDE2A3 (setting [4]), the Ki stood at 468 nM. As for `Cc1nc(N[C@@H](c2ccc(C(F)(F)F)c(F)c2)C(C)(C)C)c2nc[nH]c2n1` [Example 35], the Ki at human PDE2A1 (setting [1]) came out at 566 nM. Take `Cc1nc(NC2(c3ccc(SC(F)(F)F)cc3)CC2)c2cnn(C)c2n1` [Example 23, 1,6-Dimethyl-N-(1-{4-[(trifluoromethyl)-sulfanyl]phenyl}-cyclopropyl)-1H-pyrazolo[3,4-d]-pyrimidin-4-amine]: the results for the Ki at human PDE2A1 (setting [1]) and at Rhesus PDE2A3 (setting [5]) were 16 nM and 20 nM, respectively. For the molecule `Cn1ncc2c(NC3(c4ccc(C(F)(F)F)cc4)CC3)nc(C(F)(F)F)nc21` [Example 19, 1-Methyl-6-(trifluoromethyl)-N-(1-(4-(trifluoromethyl)phenyl)cyclopropyl)-1H-pyrazolo[3,4-d]pyrimidin-4-amine], the Ki at human PDE2A1 (setting [1]) is 67 nM; on Rhesus PDE2A3 (setting [5]) it was 80 nM. `Cc1nc(NC2(c3ccc(C(F)(F)F)cc3F)CC2)c2cnn(C)c2n1` [Example 24, N-{1-[2-Fluoro-4-(trifluoromethyl)-phenyl]cyclo-propyl}-1,6-dimethyl-1H-pyrazolo[3,4-d]-pyrimidin-4-amine]: the Ki at human PDE2A1 (setting [1]) worked out at 29 nM. Take `CC(C)c1ccc(C(C)Nc2nc(Cl)nc3c2cnn3C)cc1` (stereo not drawn) [Example 5, 6-Chloro-1-methyl-N-{1-[4-(1-methylethyl)-phenyl]ethyl}-1H-pyrazolo-[3,4-d]pyrimidin-4-amine]: the Ki at Rhesus PDE2A3 (setting [4]) turned out to be 401 nM. On to `CC(Nc1nc(Cl)nc2c1cnn2C(C)C)c1ccc(C(F)(F)F)cc1` (stereo not drawn) [Example 18, 6-Chloro-1-(1-methylethyl)-N-{1-[4-(trifluoromethyl)phenyl]ethyl}-1H-pyrazolo[3,4-d]pyrimidin-4-amine], for which the Ki on Rhesus PDE2A3 (setting [4]) amounted to 1970 nM. For `Cc1nc(NC2(c3ccc(C(F)(F)F)c(F)c3)CC2)c2cnn(CC(F)(F)F)c2n1` [Example 28, N-{1-[3-Fluoro-4-(trifluoromethyl)phenyl]cyclopropyl}-6-methyl-1-(2,2,2-trifluoroethyl)-1H-pyrazolo[3,4-d]pyrimidin-4-amine], the Ki on human PDE2A1 (setting [1]) worked out at 76 nM; at Rhesus PDE2A3 (setting [5]), 98 nM. As for `Cc1cc(N[C@@H](c2ccc(C(F)(F)F)c(F)c2)C(C)(C)C)n2ccnc2n1` [Example 32, (R)—N-(1-(3-Fluoro-4-(trifluoromethyl)phenyl)-2,2-dimethylpropyl)-7-methylimidazo[1,2-a]pyrimidin-5-amine], the inhibitory constant (Ki) at human PDE2A1 (setting [1]) turned out to be 51 nM. For `Cc1nc(N(C)C2(c3ccc(C(F)(F)F)cc3)CC2)c2cnn(C)c2n1` [Example 26, N,1,6-Trimethyl-N-{1-[4-(trifluoromethyl)phenyl]cyclopropyl}-1H-pyrazolo[3,4-d]pyrimidin-4-amine], the Ki at human PDE2A1 (setting [1]) is 4.9 nM. For the molecule `Cn1ncc2c(NC3(c4ccc(C(F)(F)F)cc4)CC3)nc(C#N)nc21` [Example 29, 1-Methyl-4-{1-[4-(trifluoromethyl)phenyl]cyclopropylamino}-1H-pyrazolo[3,4-d]pyrimidine-6-carbonitrile], the Ki on human PDE2A1 (setting [1]) was 39 nM; at Rhesus PDE2A3 (setting [5]), 47 nM.
